The values that follow are results of earlier work, collected in patent publication US20060150828A1, “Dried infant cereal compositions” (Beech-Nut Nutrition Corporation, priority 2005, published 2006).

For this series the following is noted: storage at 37° C., precooked whole wheat flour containing the iron salt.

In the case of ferrous sulfate, the “pentane formation (fat oxidation)” value was “rapidly generated pentane”.
In the case of ferrous gluconate, the “pentane formation (fat oxidation)” value is on record as “rapidly generated pentane”.
